Results reported in patent US12258327B2, “5-membered heteroaryl-containing aminopyridine compounds as EGFR inhibitors” (YUHAN CORPORATION, priority 2021, dated 2025).
Like-named read-outs stand apart in the source and are kept apart here.

What was measured:
EGFR del19/T790M/C797S = EGFR del19/T790M/C797S (Homo sapiens, UniProt P00533, C797S/DEL746-750/T790M); test: Biochemical EGFR kinase assay (Lance Ultra TR-FRET), triple mutant del19/T790M/C797S
Procedure, shortened: (§1)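 In this biochemical assay, phosphorylation after a one-hour room-temperature reaction was detected with europium-labelled anti-phosphopeptide antibody at 2 nM final concentration.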

EGFR L858R/T790M/C797S = EGFR L858R/T790M/C797S (Homo sapiens, UniProt P00533, C797S/L858R/T790M); test: Biochemical EGFR kinase assay (Lance Ultra TR-FRET), triple mutant L858R/T790M/C797S
Procedure, shortened: as §1

EGFR del19/C797S = EGFR del19/C797S (Homo sapiens, UniProt P00533, C797S/DEL746-750); test: Biochemical EGFR kinase assay (Lance Ultra TR-FRET), double mutant del19/C797S
Procedure, shortened: as §1

EGFR L858R/C797S = EGFR L858R/C797S (Homo sapiens, UniProt P00533, C797S/L858R); test: Biochemical EGFR kinase assay (Lance Ultra TR-FRET), double mutant L858R/C797S
Procedure, shortened: as §1

EGFR wildtype (WT) = EGFR wildtype (WT) (Homo sapiens, UniProt P00533); test: Biochemical EGFR kinase assay (Lance Ultra TR-FRET), wildtype
Procedure, shortened: as §1

[1] = IC50 del19/T790M/C797S (nM) 100 μM ATP, 100 μM ATP
[2] = Km ATP, read-out: IC50 del19/T790M/C797S (nM) Km ATP
[3] = IC50 L858R/T790M/C797S (nM) 100 μM ATP, 100 μM ATP
[4] = Km ATP, read-out: IC50 L858R/T790M/C797S (nM) Km ATP
[5] = IC50 del19/C797S (nM) 100 μM ATP, 100 μM ATP
[6] = Km ATP, read-out: IC50 del19/C797S (nM) Km ATP
[7] = IC50 L858R/C797S (nM) 100 μM ATP, 100 μM ATP
[8] = Km ATP, read-out: IC50 L858R/C797S (nM) Km ATP
[9] = IC50 WT (nM) 100 μM ATP, 100 μM ATP
[10] = Km ATP, read-out: IC50 WT (nM) Km ATP
[11] = read-out: IC50 del19/T790M/C797S (nM) 100 μM ATP, 100 μM ATP
[12] = read-out: IC50 L858R/T790M/C797S (nM) 100 μM ATP, 100 μM ATP
[13] = read-out: IC50 del19/C797S (nM) 100 μM ATP, 100 μM ATP
[14] = read-out: IC50 L858R/C797S (nM) 100 μM ATP, 100 μM ATP
[15] = read-out: IC50 WT (nM) 100 μM ATP, 100 μM ATP

EGFR L858R/C797S, sequence (P00533 25-1210 C797S/L858R): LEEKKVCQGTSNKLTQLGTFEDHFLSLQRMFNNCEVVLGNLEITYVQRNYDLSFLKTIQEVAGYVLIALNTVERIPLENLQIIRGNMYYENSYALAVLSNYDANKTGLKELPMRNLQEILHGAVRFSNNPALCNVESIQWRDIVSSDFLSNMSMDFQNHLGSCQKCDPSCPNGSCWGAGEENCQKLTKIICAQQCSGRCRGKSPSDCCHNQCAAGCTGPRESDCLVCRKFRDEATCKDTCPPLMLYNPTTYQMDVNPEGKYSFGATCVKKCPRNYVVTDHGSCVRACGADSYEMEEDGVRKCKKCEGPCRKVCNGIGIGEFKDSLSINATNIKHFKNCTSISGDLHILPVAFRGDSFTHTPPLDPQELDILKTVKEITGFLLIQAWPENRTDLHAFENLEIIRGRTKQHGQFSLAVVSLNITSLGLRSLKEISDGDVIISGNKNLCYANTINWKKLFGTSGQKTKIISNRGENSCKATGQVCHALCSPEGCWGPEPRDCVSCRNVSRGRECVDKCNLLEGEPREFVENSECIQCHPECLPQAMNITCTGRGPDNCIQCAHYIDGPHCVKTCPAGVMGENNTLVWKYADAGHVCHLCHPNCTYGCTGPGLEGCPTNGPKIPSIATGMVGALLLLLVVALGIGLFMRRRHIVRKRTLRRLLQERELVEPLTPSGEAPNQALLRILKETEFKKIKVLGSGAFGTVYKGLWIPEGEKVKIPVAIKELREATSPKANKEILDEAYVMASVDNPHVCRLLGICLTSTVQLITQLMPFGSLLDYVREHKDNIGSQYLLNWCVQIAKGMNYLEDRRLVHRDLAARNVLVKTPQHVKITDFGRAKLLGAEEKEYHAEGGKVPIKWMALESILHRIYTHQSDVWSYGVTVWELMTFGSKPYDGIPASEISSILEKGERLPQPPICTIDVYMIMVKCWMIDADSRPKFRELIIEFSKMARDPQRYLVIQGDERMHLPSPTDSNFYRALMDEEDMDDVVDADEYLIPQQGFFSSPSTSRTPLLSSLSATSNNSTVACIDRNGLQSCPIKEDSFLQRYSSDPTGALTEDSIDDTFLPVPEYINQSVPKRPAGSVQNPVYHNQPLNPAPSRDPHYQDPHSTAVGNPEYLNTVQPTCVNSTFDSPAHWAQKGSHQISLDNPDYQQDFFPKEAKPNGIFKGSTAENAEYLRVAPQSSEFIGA
EGFR wildtype (WT), sequence (P00533 25-1210): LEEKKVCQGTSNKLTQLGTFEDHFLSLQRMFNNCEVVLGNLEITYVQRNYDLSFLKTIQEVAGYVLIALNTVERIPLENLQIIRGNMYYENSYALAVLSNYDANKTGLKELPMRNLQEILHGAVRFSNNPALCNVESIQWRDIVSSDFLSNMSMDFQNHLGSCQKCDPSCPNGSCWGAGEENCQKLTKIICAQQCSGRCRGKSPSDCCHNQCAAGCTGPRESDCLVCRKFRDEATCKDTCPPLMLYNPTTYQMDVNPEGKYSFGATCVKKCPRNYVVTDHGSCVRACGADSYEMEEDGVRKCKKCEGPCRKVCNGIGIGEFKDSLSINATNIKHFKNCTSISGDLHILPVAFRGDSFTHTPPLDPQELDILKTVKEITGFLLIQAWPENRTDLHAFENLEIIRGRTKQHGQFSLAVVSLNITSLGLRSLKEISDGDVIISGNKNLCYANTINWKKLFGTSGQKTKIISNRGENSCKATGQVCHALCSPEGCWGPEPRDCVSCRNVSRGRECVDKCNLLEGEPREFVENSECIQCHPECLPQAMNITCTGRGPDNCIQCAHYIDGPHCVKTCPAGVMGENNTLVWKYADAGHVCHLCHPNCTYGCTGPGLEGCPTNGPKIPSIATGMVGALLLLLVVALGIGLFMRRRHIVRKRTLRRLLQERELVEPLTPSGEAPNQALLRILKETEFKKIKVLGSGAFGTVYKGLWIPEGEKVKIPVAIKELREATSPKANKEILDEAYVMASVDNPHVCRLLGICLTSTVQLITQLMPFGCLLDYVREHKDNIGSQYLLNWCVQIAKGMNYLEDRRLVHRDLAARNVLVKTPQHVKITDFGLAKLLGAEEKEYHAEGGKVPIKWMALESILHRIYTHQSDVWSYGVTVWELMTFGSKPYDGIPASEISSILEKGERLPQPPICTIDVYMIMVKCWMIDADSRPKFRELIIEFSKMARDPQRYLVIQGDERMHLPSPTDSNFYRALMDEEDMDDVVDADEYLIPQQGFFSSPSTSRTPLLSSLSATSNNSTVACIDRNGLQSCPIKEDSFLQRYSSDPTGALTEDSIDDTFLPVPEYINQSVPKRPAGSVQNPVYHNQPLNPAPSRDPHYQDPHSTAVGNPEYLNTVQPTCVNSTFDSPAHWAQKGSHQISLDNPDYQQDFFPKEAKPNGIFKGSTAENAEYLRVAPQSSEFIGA
EGFR L858R/T790M/C797S, sequence (P00533 25-1210 T790M/C797S/L858R): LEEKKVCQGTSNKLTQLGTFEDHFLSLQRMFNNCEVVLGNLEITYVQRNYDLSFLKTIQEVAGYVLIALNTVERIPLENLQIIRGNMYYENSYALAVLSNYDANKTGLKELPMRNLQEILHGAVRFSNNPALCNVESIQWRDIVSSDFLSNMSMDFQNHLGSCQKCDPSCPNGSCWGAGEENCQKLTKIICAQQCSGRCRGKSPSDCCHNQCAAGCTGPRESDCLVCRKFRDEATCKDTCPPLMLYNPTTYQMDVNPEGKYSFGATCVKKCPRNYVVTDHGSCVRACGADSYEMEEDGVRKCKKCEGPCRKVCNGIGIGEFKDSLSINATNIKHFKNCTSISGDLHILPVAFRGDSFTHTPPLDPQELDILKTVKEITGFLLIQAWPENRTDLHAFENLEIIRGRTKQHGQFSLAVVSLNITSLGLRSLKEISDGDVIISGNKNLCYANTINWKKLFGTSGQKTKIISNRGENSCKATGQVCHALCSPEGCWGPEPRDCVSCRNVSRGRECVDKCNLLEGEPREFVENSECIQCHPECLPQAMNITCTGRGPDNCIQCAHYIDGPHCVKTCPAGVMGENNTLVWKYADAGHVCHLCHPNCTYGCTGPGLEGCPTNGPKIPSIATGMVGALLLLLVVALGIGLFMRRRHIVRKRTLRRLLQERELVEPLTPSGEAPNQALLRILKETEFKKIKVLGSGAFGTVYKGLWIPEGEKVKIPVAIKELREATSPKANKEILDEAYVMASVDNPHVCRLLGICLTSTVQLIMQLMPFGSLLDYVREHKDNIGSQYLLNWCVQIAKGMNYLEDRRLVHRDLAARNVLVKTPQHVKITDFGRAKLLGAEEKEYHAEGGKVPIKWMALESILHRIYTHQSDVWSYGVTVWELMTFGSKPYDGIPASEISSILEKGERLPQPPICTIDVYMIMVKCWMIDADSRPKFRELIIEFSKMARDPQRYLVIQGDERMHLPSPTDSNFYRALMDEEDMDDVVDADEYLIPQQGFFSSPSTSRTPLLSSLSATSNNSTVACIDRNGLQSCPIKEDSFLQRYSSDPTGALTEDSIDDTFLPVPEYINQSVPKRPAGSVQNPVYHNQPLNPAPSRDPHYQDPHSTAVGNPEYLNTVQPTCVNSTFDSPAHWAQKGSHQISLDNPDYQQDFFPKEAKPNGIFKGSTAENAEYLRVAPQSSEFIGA
EGFR del19/C797S, sequence (P00533 with tags, fused parts or gaps DEL746-750/C797S): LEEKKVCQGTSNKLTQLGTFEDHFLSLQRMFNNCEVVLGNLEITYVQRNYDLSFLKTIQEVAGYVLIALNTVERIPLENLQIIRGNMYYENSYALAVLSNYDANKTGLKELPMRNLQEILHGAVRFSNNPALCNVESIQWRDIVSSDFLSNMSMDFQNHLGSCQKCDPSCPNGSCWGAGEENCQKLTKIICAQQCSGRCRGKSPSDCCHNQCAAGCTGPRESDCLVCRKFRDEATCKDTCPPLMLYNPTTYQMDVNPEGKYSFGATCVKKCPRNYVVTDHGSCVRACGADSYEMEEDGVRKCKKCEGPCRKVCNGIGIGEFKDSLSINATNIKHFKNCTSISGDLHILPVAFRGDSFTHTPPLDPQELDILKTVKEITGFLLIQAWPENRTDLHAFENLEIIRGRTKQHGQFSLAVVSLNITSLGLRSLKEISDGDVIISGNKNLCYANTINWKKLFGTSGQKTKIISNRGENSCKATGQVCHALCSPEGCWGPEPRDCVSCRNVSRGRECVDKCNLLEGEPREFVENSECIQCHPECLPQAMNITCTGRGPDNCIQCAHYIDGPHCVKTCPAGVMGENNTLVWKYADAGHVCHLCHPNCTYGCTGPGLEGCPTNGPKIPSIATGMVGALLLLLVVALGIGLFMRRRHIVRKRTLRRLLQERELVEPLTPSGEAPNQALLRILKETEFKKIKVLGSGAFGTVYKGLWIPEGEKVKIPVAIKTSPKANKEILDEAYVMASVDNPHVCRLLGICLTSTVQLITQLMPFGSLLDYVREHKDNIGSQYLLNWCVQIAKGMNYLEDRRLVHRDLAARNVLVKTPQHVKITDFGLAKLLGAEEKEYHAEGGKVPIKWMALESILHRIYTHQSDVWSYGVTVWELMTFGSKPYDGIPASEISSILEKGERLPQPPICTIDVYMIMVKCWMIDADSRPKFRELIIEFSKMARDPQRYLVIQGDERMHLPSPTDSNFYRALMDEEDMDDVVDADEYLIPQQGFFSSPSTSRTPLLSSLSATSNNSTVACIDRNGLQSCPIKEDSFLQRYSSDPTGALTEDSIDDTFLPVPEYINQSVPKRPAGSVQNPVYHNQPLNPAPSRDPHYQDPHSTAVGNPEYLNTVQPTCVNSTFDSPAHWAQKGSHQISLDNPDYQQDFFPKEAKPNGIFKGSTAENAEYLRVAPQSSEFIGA

| Compound | IC50 (EGFR del19/T790M/C797S; [1]) | IC50 (EGFR del19/T790M/C797S; [2]) | IC50 (EGFR L858R/T790M/C797S; [3]) | IC50 (EGFR L858R/T790M/C797S; [4]) | IC50 (EGFR del19/C797S; [5]) | IC50 (EGFR del19/C797S; [6]) | IC50 (EGFR L858R/C797S; [7]) | IC50 (EGFR L858R/C797S; [8]) | IC50 (EGFR wildtype (WT); [9]) | IC50 (EGFR wildtype (WT); [10]) | IC50 (EGFR del19/T790M/C797S; [11]) | IC50 (EGFR L858R/T790M/C797S; [12]) | IC50 (EGFR del19/C797S; [13]) | IC50 (EGFR L858R/C797S; [14]) | IC50 (EGFR wildtype (WT); [15]) |
| --- | --- | --- | --- | --- | --- | --- | --- | --- | --- | --- | --- | --- | --- | --- | --- |
| O=S(=O)(C1CC1)n1cc(-c2nccc(Nc3cc(OC4CCC(OC(F)F)CC4)c(-c4cnn(C(F)F)c4)cn3)n2)cn1 (stereo not drawn) [Example 70, 2-(1-(Cyclopropylsulfonyl)-1H-pyrazol-4-yl)-N-(4-((4-(difluoromethoxy)cyclohexyl)oxy)-5-(1-(difluoromethyl)-1H-pyrazol-4-yl)pyridin-2-yl)pyrimidin-4-amine] | 9.7 nM | 10.2 nM | 13.5 nM | 3.8 nM | 190 nM | 202 nM | 1490 nM | 57 nM | > 10000 nM | 1740 nM |  |  |  |  |  |
| O=S(=O)(C1CC1)n1cc(-c2nccc(Nc3cc(OC4CCC(O)CC4)c(-c4cnn(C(F)F)c4)cn3)n2)cn1 (stereo not drawn) [Example 71, 4-((2-((2-(1-(Cyclopropylsulfonyl)-1H-pyrazol-4-yl)pyrimidin-4-yl)amino)-5-(1-(difluoromethyl)-1H-pyrazol-4-yl)pyridin-4-yl)oxy)cyclohexan-1-ol] | 0.2 nM | 0.2 nM | 0.8 nM | 0.1 nM | 1.7 nM | 3.4 nM | 42.3 nM | 2.6 nM | > 10000 nM | 26 nM |  |  |  |  |  |
| O=S(=O)(C1CC1)n1cc(-c2nccc(Nc3cc(OC4CCC(O)C4)c(-c4cnn(C(F)F)c4)cn3)n2)cn1 (stereo not drawn) [Example 72, 3-((2-((2-(1-(Cyclopropylsulfonyl)-1H-pyrazol-4-yl)pyrimidin-4-yl)amino)-5-(1-(difluoromethyl)-1H-pyrazol-4-yl)pyridin-4-yl)oxy)cyclopentan-1-ol] | 0.8 nM | 0.9 nM | 5.8 nM | 0.8 nM | 21.8 nM | 31.4 nM | 189 nM | 9.4 nM | > 10000 nM | 199 nM |  |  |  |  |  |
| CC1(N)CCC(Oc2cc(Nc3ccnc(-c4cnn(S(=O)(=O)C5CC5)c4)n3)ncc2-c2cnn(C(F)F)c2)CC1 (stereo not drawn) [Example 74, N-(4-((4-Amino-4-methylcyclohexyl)oxy)-5-(1-(difluoromethyl)-1H-pyrazol-4-yl)pyridin-2-yl)-2-(1-(cyclopropylsulfonyl)-1H-pyrazol-4-yl)pyrimidin-4-amine] | 8.3 nM |  | 25.2 nM |  | 103 nM |  | 1380 nM |  | > 10000 nM |  |  |  |  |  |  |
| Cc1ncc(-c2cnc(Nc3ccnc(-c4cnn(S(=O)(=O)C5CC5)c4)n3)cc2N[C@H]2CC[C@@H](O)CC2)s1 [Example 75, (1s,4s)-4-((2-((2-(1-(Cyclopropylsulfonyl)-1H-pyrazol-4-yl)pyrimidin-4-yl)amino)-5-(2-methylthiazol-5-yl)pyridin-4-yl)amino)cyclohexan-1-ol] | 1.1 nM |  | 16.8 nM |  | 37.1 nM |  | 173 nM |  | > 10000 nM |  |  |  |  |  |  |
| CC(C)(O)c1nc(-c2cnc(Nc3ccnc(-c4cnn(S(=O)(=O)C5CC5)c4)n3)cc2N[C@H]2CC[C@@H](O)CC2)cs1 [Example 76, (1s,4s)-4-((2-((2-(1-(Cyclopropylsulfonyl)-1H-pyrazol-4-yl)pyrimidin-4-yl)amino)-5-(2-(2-hydroxypropan-2-yl)thiazol-4-yl)pyridin-4-yl)amino)cyclohexan-1-ol] | 0.7 nM |  | 2.3 nM |  | 0.4 nM |  | 3 nM |  | 1520 nM |  |  |  |  |  |  |
| O=S(=O)(C1CC1)n1cc(-c2nccc(Nc3cc(N[C@H]4CC[C@@H](O)CC4)c(-c4cnn(C(F)F)c4)cn3)n2)cn1 [Example 77, (1s,4s)-4-((2-((2-(1-(Cyclopropylsulfonyl)-1H-pyrazol-4-yl)pyrimidin-4-yl)amino)-5-(1-(difluoromethyl)-1H-pyrazol-4-yl)pyridin-4-yl)amino)cyclohexan-1-ol] | 8.8 nM |  | 11.4 nM |  | 80.8 nM |  | 479 nM |  | > 10000 nM |  |  |  |  |  |  |
| O=S(=O)(C1CC1)n1cc(-c2nccc(Nc3cc(N[C@H]4CC[C@@H](O)CC4)c(-c4cnn(C5CC5)c4)cn3)n2)cn1 [Example 78, (1s,4s)-4-((5-(1-Cyclopropyl-1H-pyrazol-4-yl)-2-((2-(1-(cyclopropylsulfonyl)-1H-pyrazol-4-yl)pyrimidin-4-yl)amino)pyridin-4-yl)amino)cyclohexan-1-ol] | 4.8 nM |  | 5.4 nM |  | 38.5 nM |  | 161 nM |  | > 10000 nM |  |  |  |  |  |  |
| Cn1ccc(-c2cnc(Nc3ccnc(-c4cnn(S(=O)(=O)C5CC5)c4)n3)cc2N[C@H]2CC[C@@H](O)CC2)n1 [Example 79, (1s,4s)-4-((2-((2-(1-(Cyclopropylsulfonyl)-1H-pyrazol-4-yl)pyrimidin-4-yl)amino)-5-(1-methyl-1H-pyrazol-3-yl)pyridin-4-yl)amino)cyclohexan-1-ol] | 0.5 nM |  | 0.5 nM |  | 0.7 nM |  | 0.8 nM |  | 58.1 nM |  |  |  |  |  |  |
| O=S(=O)(C1CC1)n1cc(-c2nccc(Nc3cc(N[C@H]4CC[C@@H](O)CC4)c(-c4ccn(C(F)F)n4)cn3)n2)cn1 [Example 80, (1s,4s)-4-((2-((2-(1-(Cyclopropylsulfonyl)-1H-pyrazol-4-yl)pyrimidin-4-yl)amino)-5-(1-(difluoromethyl)-1H-pyrazol-3-yl)pyridin-4-yl)amino)cyclohexan-1-ol] | 0.7 nM |  | 0.8 nM |  | 1.2 nM |  | 1.4 nM |  | 214 nM |  |  |  |  |  |  |
| O=S(=O)(C1CC1)n1cc(-c2nccc(Nc3cc(N[C@H]4CC[C@@H](O)CC4)c(-c4csc(C(F)(F)F)n4)cn3)n2)cn1 [Example 81, (1s,4s)-4-((2-((2-(1-(Cyclopropylsulfonyl)-1H-pyrazol-4-yl)pyrimidin-4-yl)amino)-5-(2-(trifluoromethyl)thiazol-4-yl)pyridin-4-yl)amino)cyclohexan-1-ol] | 1.1 nM |  | 1.2 nM |  | 3.4 nM |  | 4.8 nM |  | 1240 nM |  |  |  |  |  |  |
| CC(C)n1ccc(-c2cnc(Nc3ccnc(-c4cnn(S(=O)(=O)C5CC5)c4)n3)cc2N[C@H]2CC[C@@H](O)CC2)n1 [Example 82, (1s,4s)-4-((2-((2-(1-(Cyclopropylsulfonyl)-1H-pyrazol-4-yl)pyrimidin-4-yl)amino)-5-(1-isopropyl-1H-pyrazol-3-yl)pyridin-4-yl)amino)cyclohexan-1-ol] |  |  |  |  |  |  |  |  |  |  | 1.7 nM | 1.8 nM | 2.1 nM | 3.9 nM | 2410 nM |
| O=S(=O)(C1CC1)n1cc(-c2nccc(Nc3cc(N[C@H]4CC[C@@H](O)CC4)c(-c4ccco4)cn3)n2)cn1 [Example 83, (1s,4s)-4-((2-((2-(1-(Cyclopropylsulfonyl)-1H-pyrazol-4-yl)pyrimidin-4-yl)amino)-5-(furan-2-yl)pyridin-4-yl)amino)cyclohexan-1-ol] | 0.6 nM | 0.3 nM | 0.7 nM | 0.3 nM | 1.9 nM | 0.8 nM | 18 nM | 0.7 nM | > 10000 nM | 8.6 nM |  |  |  |  |  |
| CN[C@H]1CC[C@@H](Nc2cc(Nc3ccnc(-c4cnn(S(=O)(=O)C5CC5)c4)n3)ncc2-c2ccn(C(C)C)n2)CC1 [Example 86, N^2-(2-(1-(Cyclopropylsulfonyl)-1H-pyrazol-4-yl)pyrimidin-4-yl)-5-(1-isopropyl-1H-pyrazol-3-yl)-N^4-((1s,4s)-4-(methylamino)cyclohexyl)pyridine-2,4-diamine] |  |  |  |  |  |  |  |  |  |  | 0.2 nM | 0.3 nM | 3.2 nM | 14.8 nM | 8510 nM |
| CN[C@H]1CC[C@@H](Nc2cc(Nc3ccnc(-c4cnn(S(=O)(=O)C5CC5)c4)n3)ncc2-c2ccco2)CC1 [Example 87, N^2-(2-(1-(Cyclopropylsulfonyl)-1H-pyrazol-4-yl)pyrimidin-4-yl)-5-(furan-2-yl)-N^4-((1s,4s)-4-(methylamino)cyclohexyl)pyridine-2,4-diamine] | 0.2 nM |  | 0.7 nM |  | 6.9 nM |  | 31.4 nM |  | > 10000 nM |  |  |  |  |  |  |
| CN[C@H]1CC[C@@H](Nc2cc(Nc3ccnc(-c4cnn(S(=O)(=O)C5CC5)c4)n3)ncc2-c2ccn(C)n2)CC1 [Example 88, N^2-(2-(1-(Cyclopropylsulfonyl)-1H-pyrazol-4-yl)pyrimidin-4-yl)-5-(1-methyl-1H-pyrazol-3-yl)-N^4-((1s,4s)-4-(methylamino)cyclohexyl)pyridine-2,4-diamine] |  | 0.2 nM |  | 0.1 nM |  | 0.5 nM |  | 0.3 nM |  | 3.2 nM | 0.3 nM | 0.3 nM | 1 nM | 3.1 nM | 1980 nM |
